Assays:
Cytochrome P450 2A6 = molecular target: T1, Cytochrome P450 2A6 (Homo sapiens, UniProt P11509); conditions: bti-tn-5b1-4; also: in other assays of this panel Not Active means under 50% inhibition at 10 µM
T1 sequence (P11509 whole entry): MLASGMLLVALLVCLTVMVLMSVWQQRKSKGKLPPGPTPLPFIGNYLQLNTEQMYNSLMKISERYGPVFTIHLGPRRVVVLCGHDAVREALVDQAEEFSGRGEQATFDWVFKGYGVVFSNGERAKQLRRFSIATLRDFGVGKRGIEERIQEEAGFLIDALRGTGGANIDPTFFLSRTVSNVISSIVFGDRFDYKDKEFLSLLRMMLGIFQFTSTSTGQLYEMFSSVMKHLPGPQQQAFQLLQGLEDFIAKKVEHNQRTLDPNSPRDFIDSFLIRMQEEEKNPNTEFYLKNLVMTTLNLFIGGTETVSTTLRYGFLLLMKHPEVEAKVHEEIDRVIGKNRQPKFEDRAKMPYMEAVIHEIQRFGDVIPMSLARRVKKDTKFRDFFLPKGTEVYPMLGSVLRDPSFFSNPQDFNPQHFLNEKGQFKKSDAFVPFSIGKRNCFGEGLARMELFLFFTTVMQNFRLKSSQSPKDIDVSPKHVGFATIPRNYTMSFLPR

[1] = molecular target: T2, Alpha-1B adrenergic receptor (Rattus norvegicus, UniProt P15823); test: DRUGMATRIX: Alpha-1B adrenergic receptor radioligand binding (ligand: prazosin); format: cell membranes, Wistar, Liver, Membrane; conditions: Not Active = under 50% inhibition at 10 µM
T2 sequence (P15823 whole entry): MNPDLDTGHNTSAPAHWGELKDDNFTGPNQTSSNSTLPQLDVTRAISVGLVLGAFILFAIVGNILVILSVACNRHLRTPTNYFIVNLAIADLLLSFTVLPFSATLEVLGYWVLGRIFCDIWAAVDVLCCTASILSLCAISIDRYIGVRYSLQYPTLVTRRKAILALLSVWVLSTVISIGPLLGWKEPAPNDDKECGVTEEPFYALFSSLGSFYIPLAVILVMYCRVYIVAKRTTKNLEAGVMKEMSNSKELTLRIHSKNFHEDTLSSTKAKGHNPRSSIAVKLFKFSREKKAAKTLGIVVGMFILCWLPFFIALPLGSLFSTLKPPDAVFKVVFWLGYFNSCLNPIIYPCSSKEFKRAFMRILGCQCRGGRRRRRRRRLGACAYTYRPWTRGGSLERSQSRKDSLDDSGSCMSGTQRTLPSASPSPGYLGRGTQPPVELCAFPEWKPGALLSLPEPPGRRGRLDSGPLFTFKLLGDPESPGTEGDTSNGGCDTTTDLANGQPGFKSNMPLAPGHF

[2] = molecular target: Voltage-gated inwardly rectifying potassium channel KCNH2 (Homo sapiens, UniProt Q12809); conditions: hek293; also: in other assays of this panel Not Active means under 50% inhibition at 10 µM
Voltage-gated inwardly rectifying potassium channel KCNH2, sequence (Q12809 whole entry): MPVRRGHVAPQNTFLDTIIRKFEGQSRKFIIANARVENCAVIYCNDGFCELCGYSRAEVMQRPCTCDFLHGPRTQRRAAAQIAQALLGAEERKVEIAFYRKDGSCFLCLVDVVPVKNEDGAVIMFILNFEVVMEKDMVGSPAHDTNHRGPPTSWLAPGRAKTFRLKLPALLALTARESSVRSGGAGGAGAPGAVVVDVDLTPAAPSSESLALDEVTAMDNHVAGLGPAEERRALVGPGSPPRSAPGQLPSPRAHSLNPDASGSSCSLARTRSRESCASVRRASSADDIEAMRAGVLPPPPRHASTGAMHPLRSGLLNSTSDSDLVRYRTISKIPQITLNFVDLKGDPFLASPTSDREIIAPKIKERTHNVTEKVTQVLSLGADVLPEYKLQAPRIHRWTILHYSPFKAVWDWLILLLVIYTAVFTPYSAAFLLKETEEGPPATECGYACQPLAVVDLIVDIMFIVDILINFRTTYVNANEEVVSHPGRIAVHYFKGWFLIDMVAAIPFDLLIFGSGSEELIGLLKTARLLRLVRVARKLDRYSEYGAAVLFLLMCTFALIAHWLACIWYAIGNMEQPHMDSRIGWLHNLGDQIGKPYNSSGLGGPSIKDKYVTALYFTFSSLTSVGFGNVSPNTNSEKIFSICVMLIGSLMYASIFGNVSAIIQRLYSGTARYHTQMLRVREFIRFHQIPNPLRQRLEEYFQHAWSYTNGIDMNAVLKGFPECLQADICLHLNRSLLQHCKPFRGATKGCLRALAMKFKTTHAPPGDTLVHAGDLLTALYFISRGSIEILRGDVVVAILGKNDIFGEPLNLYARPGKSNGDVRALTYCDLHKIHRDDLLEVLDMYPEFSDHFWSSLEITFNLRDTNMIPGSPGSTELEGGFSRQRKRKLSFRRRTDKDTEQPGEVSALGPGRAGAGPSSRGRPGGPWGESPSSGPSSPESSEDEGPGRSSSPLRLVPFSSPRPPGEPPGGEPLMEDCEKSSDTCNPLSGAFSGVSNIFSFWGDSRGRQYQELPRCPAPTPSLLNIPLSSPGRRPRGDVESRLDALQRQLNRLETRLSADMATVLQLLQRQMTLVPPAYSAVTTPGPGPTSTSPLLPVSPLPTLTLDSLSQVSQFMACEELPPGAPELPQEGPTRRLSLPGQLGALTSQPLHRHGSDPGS

[3] = molecular target: T3, 5-hydroxytryptamine receptor 2C (Homo sapiens, UniProt P28335); test: DRUGMATRIX: Serotonin (5-Hydroxytryptamine) 5-HT2C radioligand binding (ligand: [3H] Mesulergine); format: cell membranes, CHO-K1, Membrane; conditions: cho-k1; Not Active = under 50% inhibition at 10 µM
T3 sequence (P28335 whole entry): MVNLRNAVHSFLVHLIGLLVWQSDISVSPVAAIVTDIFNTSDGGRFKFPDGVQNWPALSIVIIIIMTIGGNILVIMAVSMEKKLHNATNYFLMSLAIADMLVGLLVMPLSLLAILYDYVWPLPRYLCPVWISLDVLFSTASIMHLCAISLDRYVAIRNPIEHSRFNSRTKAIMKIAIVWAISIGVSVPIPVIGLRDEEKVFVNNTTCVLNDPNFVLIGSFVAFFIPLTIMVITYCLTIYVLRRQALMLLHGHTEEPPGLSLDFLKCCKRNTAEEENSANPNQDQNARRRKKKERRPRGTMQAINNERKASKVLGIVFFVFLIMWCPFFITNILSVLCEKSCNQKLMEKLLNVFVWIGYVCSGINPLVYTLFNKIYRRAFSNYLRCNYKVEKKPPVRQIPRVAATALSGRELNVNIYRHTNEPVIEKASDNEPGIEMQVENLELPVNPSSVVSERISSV

[4] = molecular target: T4, Alpha-2A adrenergic receptor (Homo sapiens, UniProt P08913); format: cell membranes, Sf9, Membrane; conditions: sf9; also: in other assays of this panel Not Active means under 50% inhibition at 10 µM
T4 sequence (P08913 whole entry): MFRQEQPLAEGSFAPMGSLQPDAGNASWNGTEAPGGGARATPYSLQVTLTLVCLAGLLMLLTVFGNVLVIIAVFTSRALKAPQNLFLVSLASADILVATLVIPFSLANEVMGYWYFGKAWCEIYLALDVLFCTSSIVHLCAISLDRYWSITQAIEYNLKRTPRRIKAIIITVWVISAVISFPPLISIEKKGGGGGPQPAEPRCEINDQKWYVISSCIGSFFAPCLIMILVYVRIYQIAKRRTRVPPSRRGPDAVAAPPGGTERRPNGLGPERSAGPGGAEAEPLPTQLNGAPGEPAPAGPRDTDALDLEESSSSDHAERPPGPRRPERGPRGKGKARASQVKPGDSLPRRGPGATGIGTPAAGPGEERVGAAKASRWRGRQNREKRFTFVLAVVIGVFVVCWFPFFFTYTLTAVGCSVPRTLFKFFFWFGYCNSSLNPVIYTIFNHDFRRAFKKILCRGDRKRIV

Mu-type opioid receptor = Mu-type opioid receptor (Homo sapiens, UniProt P35372); test: DRUGMATRIX: Opiate mu (OP3, MOP) radioligand binding (ligand: [3H] Diprenorphine); format: cell membranes, CHO-K1, Membrane; conditions: cho-k1; Not Active = under 50% inhibition at 10 µM
Mu-type opioid receptor, sequence (P35372 whole entry): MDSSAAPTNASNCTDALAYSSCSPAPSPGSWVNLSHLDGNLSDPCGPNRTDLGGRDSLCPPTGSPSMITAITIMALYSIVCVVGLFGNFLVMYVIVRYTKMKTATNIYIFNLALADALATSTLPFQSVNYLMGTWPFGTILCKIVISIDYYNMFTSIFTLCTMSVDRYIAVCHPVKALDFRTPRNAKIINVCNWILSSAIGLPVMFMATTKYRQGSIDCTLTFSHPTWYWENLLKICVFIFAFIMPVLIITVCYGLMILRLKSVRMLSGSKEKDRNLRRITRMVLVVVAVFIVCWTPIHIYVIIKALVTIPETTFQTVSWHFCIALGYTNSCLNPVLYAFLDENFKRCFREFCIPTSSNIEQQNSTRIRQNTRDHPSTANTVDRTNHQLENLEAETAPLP

Oc1ccc(/C=C/c2cc(O)cc(O)c2)cc1 [RESVERATROL]
Not Active: IC50 (Cytochrome P450 2A6) | Ki (Cytochrome P450 2A6) | IC50 [1] | IC50 [2] | Ki [2] | IC50 [3] | IC50 [4]

O=C1CC[C@@]2(O)[C@H]3Cc4ccc(O)c5c4[C@@]2(CCN3CC2CC2)[C@H]1O5 [NALTREXONE]
Not Active: IC50 (Cytochrome P450 2A6) | Ki (Cytochrome P450 2A6) | IC50 [1] | IC50 [2] | Ki [2] | IC50 [3] | IC50 [4]

CNCCCC12CCC(c3ccccc31)c1ccccc12 [MAPROTILINE]
Not Active: IC50 [2] | Ki [2] | IC50 (Mu-type opioid receptor)

CN(C)CCC=C1c2ccccc2COc2ccccc21 [DOXEPIN]
Not Active: IC50 (Cytochrome P450 2A6) | Ki (Cytochrome P450 2A6) | IC50 [2] | Ki [2] | IC50 (Mu-type opioid receptor)

O=[As][O-].[Na+] [SODIUM ARSENITE]
Not Active: IC50 (Cytochrome P450 2A6) | Ki (Cytochrome P450 2A6) | IC50 [1] | IC50 [2] | Ki [2] | IC50 [3] | IC50 [4]

LEAD(IV) ACETATE
Not Active: IC50 (Cytochrome P450 2A6) | Ki (Cytochrome P450 2A6) | IC50 [1] | Ki [1] | IC50 [2] | Ki [2] | IC50 [3] | Ki [3] | IC50 [4] | Ki [4]

CC#C[C@]1(O)CC[C@H]2[C@@H]3CCC4=CC(=O)CCC4=C3[C@@H](c3ccc(N(C)C)cc3)C[C@@]21C [MIFEPRISTONE]
Not Active: IC50 (Cytochrome P450 2A6) | Ki (Cytochrome P450 2A6) | IC50 [1] | IC50 [3] | IC50 [4]

CCN(CC)N=O [N-NITROSODIETHYLAMINE]
Not Active: IC50 (Cytochrome P450 2A6) | Ki (Cytochrome P450 2A6) | IC50 [1] | IC50 [2] | Ki [2] | IC50 [3] | IC50 [4]

CC(Cl)(Cl)Cl [TRICHLOROETHANE]
Not Active: IC50 (Cytochrome P450 2A6) | Ki (Cytochrome P450 2A6) | IC50 [1] | IC50 [2] | Ki [2] | IC50 [3] | IC50 [4]

Cc1cc2c(s1)Nc1ccccc1N=C2N1CCN(C)CC1 [OLANZAPINE]
Not Active: IC50 (Cytochrome P450 2A6) | Ki (Cytochrome P450 2A6) | IC50 (Mu-type opioid receptor)

C1CCN2C[C@@H]3C[C@@H](CN4CCCC[C@@H]34)[C@H]2C1 [SPARTEINE]
Not Active: IC50 [1] | IC50 [2] | Ki [2] | IC50 [3] | IC50 [4]

CO[C@@H]1[C@@H](OC)[C@H](C)[C@@](O)(CC(=O)O)O[C@H]1[C@H](C)[C@H]1O[C@@]2(CC[C@@](C)([C@H]3CC[C@@](C)([C@@H]4O[C@@H]([C@H]5O[C@](C)(O)[C@H](C)C[C@@H]5C)C[C@@H]4O[C@@H]4C[C@H](OC)[C@@H](OC)[C@H](C)O4)O3)O2)C[C@H](O)[C@H]1C.N [MADURAMICIN]
Not Active: IC50 (Cytochrome P450 2A6) | Ki (Cytochrome P450 2A6) | IC50 [2] | Ki [2] | IC50 (Mu-type opioid receptor) | IC50 [3] | IC50 [4]

— ChEMBL document CHEMBL1909046, “DrugMatrix in vitro pharmacology data”
